Test: xn = mol fraction of the nth substance listed

ClC(Cl)(Cl)Cl + CC(C)O
313.15 K, 101.33 kPa
Details	viscosity [mPa·s]
x2 = 0.115	0.7291
x2 = 0.22	0.7336
x2 = 0.325	0.7548
x2 = 0.421	0.7812
x2 = 0.5	0.8175
x2 = 0.602	0.8746
x2 = 0.685	0.9355
x2 = 0.745	0.9868
x2 = 0.879	1.145

ClC(Cl)(Cl)Cl + CC(C)=O
viscosity [mPa·s], 101 kPa
Details	x1 = 0.0993	x1 = 0.2003	x1 = 0.2968	x1 = 0.4207	x1 = 0.5193	x1 = 0.61	x1 = 0.7052	x1 = 0.8049	x1 = 0.9143
293.15 K	0.3621	0.4068	0.4555	0.5227	0.5813	0.6398	0.7073	0.7845	0.8843
298.15 K	0.3447	0.3859	0.4311	0.4933	0.5473	0.6015	0.6632	0.7338	0.8251
303.15 K	0.3284	0.3665	0.409	0.466	0.5196	0.5667	0.6234	0.6889	0.7757
313.15 K	0.3001	0.3321	0.3699	0.4185	0.4649	0.506	0.5538	0.6106	0.6817

CCCOC(C)=O + c1ccccc1
Details	viscosity [mPa·s]
298.15 K, 101.3 kPa, x2 = 0.246	0.537
298.15 K, 101.3 kPa, x2 = 0.4714	0.537
298.15 K, 101.3 kPa, x2 = 0.6809	0.551
298.15 K, 101.3 kPa, x2 = 0.8404	0.563
303.15 K, 101.33 kPa, x2 = 0.0633	0.514
303.15 K, 101.33 kPa, x2 = 0.1259	0.515
303.15 K, 101.33 kPa, x2 = 0.1865	0.513
303.15 K, 101.33 kPa, x2 = 0.3006	0.512
303.15 K, 101.33 kPa, x2 = 0.4062	0.513
303.15 K, 101.33 kPa, x2 = 0.5133	0.514
303.15 K, 101.33 kPa, x2 = 0.6141	0.517
303.15 K, 101.33 kPa, x2 = 0.7078	0.524
303.15 K, 101.33 kPa, x2 = 0.7972	0.529
303.15 K, 101.33 kPa, x2 = 0.8812	0.539
303.15 K, 101.33 kPa, x2 = 0.9631	0.551
308.15 K, 101.3 kPa, x2 = 0.246	0.477
308.15 K, 101.3 kPa, x2 = 0.4714	0.48
308.15 K, 101.3 kPa, x2 = 0.8404	0.49
313.15 K, 101.33 kPa, x2 = 0.1951	0.448
313.15 K, 101.33 kPa, x2 = 0.4024	0.449
313.15 K, 101.33 kPa, x2 = 0.5082	0.453
313.15 K, 101.33 kPa, x2 = 0.6029	0.455
313.15 K, 101.33 kPa, x2 = 0.8029	0.466

ClC(Cl)(Cl)Cl + c1ccncc1
298.15 K, 101 kPa
Details	viscosity [mPa·s]
x1 = 0.09	0.9206
x1 = 0.1492	0.9404
x1 = 0.2381	0.9623
x1 = 0.293	0.9729
x1 = 0.37	0.9819
x1 = 0.4337	0.9847
x1 = 0.4561	0.9841
x1 = 0.4972	0.9842
x1 = 0.6006	0.9751
x1 = 0.738	0.9538
x1 = 0.7863	0.943
x1 = 0.8636	0.9286
x1 = 0.9447	0.912

CCN(CC)CC + C1CCCCC1
303.15 K, 101 kPa
Details	viscosity [mPa·s]
x1 = 0.01021	0.8057
x1 = 0.01915	0.7913
x1 = 0.0299	0.7725
x1 = 0.04221	0.7556
x1 = 0.04976	0.7402
x1 = 0.0618	0.7264
x1 = 0.07115	0.7134
x1 = 0.07987	0.7009
x1 = 0.08947	0.6879
x1 = 0.09947	0.6772

NNC(=O)c1ccncc1 + O
viscosity [mPa·s]
Details	298.15 K	303.15 K	308.15 K	313.15 K
100 kPa, x1 = 0.00051	–	–	0.7216	–
100 kPa, x1 = 0.000801	–	0.8033	0.724	–
100 kPa, x1 = 0.00109	0.9009	0.8061	0.7263	0.6588
100 kPa, x1 = 0.00153	0.9061	0.8104	0.7299	0.6617
101 kPa, x1 = 0.003	0.9182	–	0.7383	–

CCN(CC)CC + CCC(C)O
303.15 K, 101 kPa
Details	viscosity [mPa·s]
x1 = 0.01087	2.436
x1 = 0.02221	2.406
x1 = 0.0326	2.38
x1 = 0.04176	2.357
x1 = 0.05247	2.33
x1 = 0.06249	2.302
x1 = 0.07262	2.276
x1 = 0.08419	2.246
x1 = 0.09512	2.217

CCN(CC)CC + CCCCCCCC
viscosity [mPa·s], 101.33 kPa
Details	x1 = 0.1983	x1 = 0.4032	x1 = 0.5055	x1 = 0.6044	x1 = 0.7987	x1 = 0.9028
303.15 K	0.4507	0.4233	0.411	0.3999	0.3795	0.3694
313.15 K	0.3913	0.3701	0.3605	0.3523	0.3379	0.331

ClC(Cl)(Cl)Cl + COc1ccccc1
viscosity [mPa·s], 101 kPa
Details	x2 = 0.105	x2 = 0.2013	x2 = 0.3026	x2 = 0.3956	x2 = 0.5023	x2 = 0.5968	x2 = 0.699	x2 = 0.797	x2 = 0.8998
298.15 K	0.9408	0.9425	0.9493	0.9547	0.9644	0.9745	0.9834	0.9896	0.9961
303.15 K	0.8895	0.8842	0.8852	0.8927	0.9013	0.9054	0.9147	0.919	0.926
308.15 K	0.8268	0.8263	0.8279	0.8326	0.8397	0.8446	0.8502	0.8547	0.858
313.15 K	0.7762	0.7751	0.7851	0.7777	0.7837	0.7864	0.7919	0.7946	0.7981

Reference: the CheMixHub viscosity set
